# Measured values published in patent publication US8466291B2, “1,5-dideoxy-1,5-imino-D-glucitol compounds” (Academia Sinica, priority 2008, dated 2013).
# Experiments:
# human Hex B (FLAG-HexB) [1] = biological target: T1, human Hex B (FLAG-HexB) (Homo sapiens, UniProt P07686); assay: In situ immunostaining of Compound 5 and FLAG-HexB in 293T/FLAG-HexB cells; assay type: cell-based; conditions: confocal immunofluorescence, anti-FLAG and anti-biotin antibodies
# T1 construct: FLAG (N); expressed in transfected cells
# T1 sequence (P07686 122-556): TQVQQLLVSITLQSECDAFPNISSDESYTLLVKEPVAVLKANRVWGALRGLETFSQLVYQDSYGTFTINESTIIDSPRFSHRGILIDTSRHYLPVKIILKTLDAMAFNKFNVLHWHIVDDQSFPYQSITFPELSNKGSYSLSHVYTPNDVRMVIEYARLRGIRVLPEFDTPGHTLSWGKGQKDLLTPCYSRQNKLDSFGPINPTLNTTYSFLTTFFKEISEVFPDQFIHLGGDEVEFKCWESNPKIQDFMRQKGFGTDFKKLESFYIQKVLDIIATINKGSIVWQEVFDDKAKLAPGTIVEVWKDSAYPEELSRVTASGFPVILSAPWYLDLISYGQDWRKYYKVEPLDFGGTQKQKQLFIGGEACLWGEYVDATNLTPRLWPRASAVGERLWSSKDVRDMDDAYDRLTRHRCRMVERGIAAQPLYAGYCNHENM
# Procedure: (§1) A DNA fragment encoding human Hex B was amplified by PCR and cloned into pCMV-Tag 2B vector (Stratagene) to produce FLAG-tagged HexB expression plasmid (pFLAG-HexB). This plasmid was introduced into 293T cells to establish a cell line stably expressing FLAG-HexB. Briefly, 293T cells were maintained in Dulbecco's modified Eagle's medium (DMEM) supplemented with 10% (by volumn) heat inactivated fetal bovine serum (FBS), 2 mM glutamine, 100 units/mL penicillin and 100 μg/mL streptomycin at 37° C. in a 5% CO2 atmosphere. These cells were transfected with expression plasmid pFLAG-HexB and plasmid pBabe-puro (carrying a puromycin resistance gene) at a molar ratio of 30-40:1. 8 hours later, the transfected cells were fed with fresh medium and incubated for 16 h. These cells were then cultured in puromycin-containing (2 μg/mL) medium for 2-3 weeks to screen for puromycin-resistant clones.
# Binding of Compound 5 to HexB was first examined by in situ immunostaining as follows. 293T/FLAG-HexB cells were grown on glass coverslips in the presence of biotin-conjugated Compound 5 and fixed in 4% paraformaldehyde for 15 min. […]
# human Hex B (FLAG-HexB) [2] = biological target: T1, human Hex B (FLAG-HexB); assay: Immunoprecipitation / streptavidin pull-down and Western blot from 293T/FLAG-HexB cell lysate; assay type: binding; conditions: 200 nM, room temperature 10 min
# Procedure: as §1
# Binding of Compound 5 to FLAG-HexB were further confirmed by immuno-precipitation and Westernblot assays. The 293T/FLAG-HexB cells were lysed with a lysis buffer containing 1% NP-40, 10 mM Tris-HCl at pH 7.4, 150 mM NaCl, 2 mM EDTA, 1 mM phenylmethylsulfonyl fluoride, and a proteinase inhibitor cocktail (Sigma), and the cell lysate was then incubated at room temperature for 10 min in the presence or absence of Compound 5 (200 nM). […]
# Human HEX B = biological target: T2, Human HEX B (Homo sapiens, UniProt P07686); assay: Michaelis-Menten/Lineweaver-Burk kinetic inhibition of Hex B with 4MU-NAG substrate; assay type: biochemical
# T2 construct: Hex B protein (isolated from human placenta) was purchased from Sigma Co; purchased Sigma Co; host or cells: human placenta
# T2 sequence (P07686 50-107 partner limits assumed, one chain of several): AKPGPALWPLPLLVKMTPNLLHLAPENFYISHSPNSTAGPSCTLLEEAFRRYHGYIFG
# Procedure: Hex B protein (isolated from human placenta) was purchased from Sigma Co.
# Both O-GlcNAcase and Hex B were subjected to Michaelis-Menton kinetic analysis to determine the kinetics of their enzymatic activity in the presence of absence of Compounds 1-5 and Compound ix, using 4-methylumbelliferyl-N-acetyl-β-D-glucosaminide (4MU-NAG; purchased from Sigma Co.) as the substrate (a fluorogenic substrate). The reaction conditions for each enzyme are shown below:
# Hex B: reaction mixture (0.1 nM Hex B (200 μL), 50 mM NaH2PO4, 100 mM NaCl, 0.1% BSA, 0.05-1.5 mM substrate, pH 6.5) was incubated at 30° C. for 25 minutes. The reaction was terminated by addition of a 3× quenching buffer (200 mM sodium glycine buffer, pH 10.8). The enzyme activity was determined as described above.
# To determine the effects of Compounds 1-5 and Compound ix on the kinetics of both enzymes, the enzyme reactions described above were performed in the presence of each compound at different concentrations. In these reactions, the substrate concentrations were three to five fold of the concentration used for determining KM (absent compounds) and the ratio between the enzyme and the compound was 0.1-0.5 nM to 0.3 nM-200 uM. The data thus obtained were analyzed by the Lineweaver-Burk plot. The K1 values were determined by the double reciprocal plot (1/V vs. 1/[S]). More specifically, the Km values for each enzyme in the presence of one of the test compounds first determined and these values were further plotted in view of the concentrations of the compound. K1 was determined by calculating the negative value of the resulting x-intercept. The selectivity of each compound was calculated by the formula: K1 O-GlcNAcase/K1 Hex B.
# [3] = system: BV2 cells (mouse microglia cells); assay: GM2 ganglioside accumulation in BV2 microglia cells by Western blot; assay type: cell-based; conditions: different concentrations, 16 hr, Western blot with anti-Ganglioside asialo GM2 antibody
# Procedure: BV2 cells (mouse microglia cells) were cultured in DMEM for 24 hr in 60-mm tissue culture dishes. The cells were washed once with PBS (pH 7.4), and 2 mL of fresh medium with or without biotin conjugated Compound 5 (at different concentrations) was added to each dish. After being incubated in a 5% CO2 incubator at 37° C. for 16 hr, the BV2 cells were harvested, re-suspended in a solution containing PBS and 2×SDS lysis buffer (250 mM Tris, pH 6.8/4% SDS/20% glycerol/0.002% bromophenol blue/10% 2-mercaptoethanol) at a ratio of 1:1 to produce whole cell lysates. The cell lysates were boiled and then subjected to SDS-PAGE (15%) using a mini-gel apparatus (Biorad, Germany). Substances contained in the gel were transferred to a nitrocellulose membrane (Millipore) at 1 mA/cm^2 using a semidry blot system (Biorad, Germany). The membrane was blocked with a Tris-buffered saline (TBST) (50 mM Tris-HCl, pH 7.5; 150 mM NaCl; 0.1% Tween-20) containing 5% skim-milk and then blotted with an anti-Ganglioside asialo GM2 antibody and an anti-GAPDH antibody.
compound,measurement,setting,value
CC(=O)NC1CN(CCCCCCCNC(=O)CCCCC2SCC3NC(=O)NC32)C(CO)C(O)C1O (centres unmarked) [Compound 5],co-localization of FLAG-HexB and compound,human Hex B (FLAG-HexB) [1],co-localized in the cytoplasm
same,association of FLAG-HexB with compound (streptavidin-agarose beads),human Hex B (FLAG-HexB) [2],FLAG-HexB protein was attached to the streptavidin-agarose beads
same,Ki,Human HEX B; Table 1,26.7 ± 1.11 nM
same,Ki,Human HEX B; Table 2,26.7 ± 1.11 nM
same,ganglioside GM2 accumulation,[3],accumulated in Compound 5-treated BV2 cells in a dose-dependent manner
